The subject of data set [1] is HSV-1 (herpes simplex type 1). As to the kind of experiment: microbe, parasite or virus in culture. The settings on record: for EC50: HSV-1; for activity against HSV-1: in words. From the text:
(§1) Compounds 25 and 26 are (S)-methanocarba-T and (±)-(carba-T), respectively. (±)-carba-T was kindly provided by Dr. Y. Fulmer Shealy, Southern Research Institute, Birmingham, Ala. [drawing 5]

Data set [2] has as its system HSV-2 (herpes simplex type 2). As to the kind of experiment: microbe, parasite or virus in culture. The following applies: for EC50: HSV-2; for activity against HSV-2: in words.
From the text: as §1

In another data set the test system is EBV (Epstein-Barr virus). As to the kind of experiment: microbe, parasite or virus in culture. The class given is cell-based. The settings on record: for EC50: human gammaherpesvirus 4, read-out: EC50; for anti-EBV activity relative to acyclovir / EC50: EBV; for activity against EBV: in words.
From the text: as §1

Data set [3] can be described thus: Cytotoxicity in host cells / stationary cells (HFF). The class given is cell-based, human. The following applies: human, hff cells. The text has this:
(§2) ^d CC50 = cytotoxic concentration in μg/mL that produces 50%

The nature of data set [4]: Cytotoxicity in growing (rapidly dividing) HFF. The class given is cell-based, human. The following applies: human, growing hff cells, read-out: CC50.
Data set [5] can be described thus: Cytotoxicity in EBV host cells (Daudi). The following applies: human. The class given is cell-based.
The subject of another data set is herpes viruses. As to the kind of experiment: Antiherpetic activity, overall. The class given is cell-based. The following applies: in words.
Data set [6] concerns HCMV (human cytomegalovirus). In words: microbe, parasite or virus in culture. The class given is cell-based.
Method: (§4) Antiviral testing of nucleoside analogs was performed on various herpes viruses. Two days prior to use, human foreskin fibroblasts (BFF) were trypsinized, counted, seeded onto six well plates and incubated at 37° C., 5% CO2, 90% relative humidity. Virus was diluted in Modified Eagle's Medium (MEM) containing 10% fetal bovine serum (FBS) at a desired concentration to give 20-30 plaques/well. Media was aspirated from the wells and 0.2 ml virus +0.2 ml media was added to each well in duplicate. Plates were incubated for 1 hour with shaking every 15 minutes. After the incubation, equal volumes of 1% agarose and the diluted nucleoside analog were combined and applied to each well in a 2 ml volume. The plates were incubated for three days and cells were stained with a 1.5% solution of neutral red. After 4-6 hours, the stain was aspirated and plaques were counted using a stereomicroscope at 10×magnification.
Data set [7] deals with HFF (human foreskin fibroblasts). In words: Cytotoxicity in host cells / stationary cells (HFF). The settings on record: Table 5, host cell not given. The class given is cell-based.
From the text: as §2

In data set [8] the test system is HCMV (human cytomegalovirus). In words: microbe, parasite or virus in culture. The settings on record: for EC50: Human betaherpesvirus 5, Table 5, HCMV, plaque reduction assay. The class given is cell-based. From the text:
| ^f plaque reduction assay.
(Plaques are areas of infected cells; plaque reduction assays count them against a control.)

For another data set, the system named is Growing HFF. As to the kind of experiment: Cytotoxicity in growing (rapidly dividing) HFF. The class given is cell-based, human. The settings on record: in words; rapidly proliferating vs stationary cells.
Data set [9] in a line: Adenosine deaminase studies (deamination by ADA). The class given is biochemical. The settings on record: adenosine deaminase; 50 μM compound; 1.0 unit ADA; 37° C., pH 7.1; read-out: t1/2 of deamination. On the procedure: (§3) At timed intervals, 50 µl aliquots were quenched with 450 μl water containing the ADA inhibitor deoxycoformycin (4 μM). Hydrolysis kinetics of 4 were followed by high performance liquid chromatography (HPLC) with on-the-fly UV spectral characterization of all chromatographic components. […] The hydrolysis rate constant (k/ADA) and t^1/2 of decay or formation were obtained using GraphPAD Inpiot curve fitting program.

Data set [10] deals with adenosine deaminase (ADA). As to the kind of experiment: Adenosine deaminase studies (deamination by ADA). The class given is biochemical. On the procedure: as §3
The test system of data set [11] is S-adenosylhomocysteine hydrolase (AdoHcy-ase). As to the kind of experiment: Inhibition of S-adenosylhomocysteine hydrolase. The class given is biochemical.
Setting [12] is: Human alphaherpesvirus 1, Table 4, plaques reduced by 50%.
The mark [13] stands for this setting: Human alphaherpesvirus 2, Table 4, plaques reduced by 50%.
The mark [14] stands for this setting: Table 4, HSV-1 and HSV-2 lines, host cell not given.
Setting [15] is: Human alphaherpesvirus 1, Table 5.
Setting [16] is: Human alphaherpesvirus 2, Table 5.
[17] abbreviates: Human betaherpesvirus 5, Table 5, HCMV, read-out: EC50.

The term EC50 denotes the concentration at which the effect is half-maximal. For orientation: CC50 means the concentration at which the toxic effect on the cells reaches its halfway point. For orientation: inhibition means the share of the control response that was lost under treatment. A high value points to a strong effect.

In brackets after ≈: the same amount, converted by molar mass. Read-outs that look alike come from different tables or passages of the source.

Method for herpes viruses: as §4

On to `Cc1cn([C@H]2C[C@H](O)[C@]3(CO)C[C@H]23)c(=O)[nH]c1=O` [Compound 20], for which the “SI (CC50/EC50)” value in data set [1] is on record as above 2000; in data set [2] it was above 167; in the data set with EBV (Epstein-Barr virus), above 222. Further, the EC50 is 0.01 µg/mL (≈ 0.0396 µM) in data set [1] (setting [12]), 0.12 µg/mL (≈ 0.476 µM) in [2] (setting [13]) and 0.45 µg/mL (≈ 1.78 µM) with EBV (Epstein-Barr virus) (Table 4). The “activity against HSV-1” value in data set [1] was “strong activity”; in data set [1] (listed as N-methanocarba-T) it was “effective against HSV-1, HSV-2 and EBV”. The “activity against HSV-2” value was “strong activity” in data set [2]; “effective against HSV-1, HSV-2 and EBV” in data set [2] (listed as N-methanocarba-T). In the data set with EBV (Epstein-Barr virus), the “anti-EBV activity relative to acyclovir” value was “not as strong as ACV”. Moreover, the “activity against EBV” value in the data set with EBV (Epstein-Barr virus) was “significant anti-EBV activity”; in the data set with EBV (Epstein-Barr virus) (listed as N-methanocarba-T), “effective against HSV-1, HSV-2 and EBV”. The cytotoxic concentration (CC50) in data set [3] (setting [14]) is above 20 µg/mL; in [3] (stationary cells), above 100 µg/mL; in data set [4] (rapidly dividing cells), 32.9 µg/mL (≈ 130 µM); in data set [5] (Table 4, EBV line, host cell not given), above 100 µg/mL. Also, the “activity relative to acyclovir” value with herpes viruses (HSV-1 and HSV-2) is listed as “stronger than observed with acyclovir”.
For the compound `Cc1cn([C@@H]2C[C@H](CO)[C@@H](O)C2)c(=O)[nH]c1=O` (relative stereo) [Compound 26, (±)-(carba-T), reference compound], the “SI (CC50/EC50)” value in data set [1] and in data set [2] was 1 in each case. The EC50 in [1] (setting [12]) and in data set [2] (setting [13]) was above 10 µg/mL throughout. In addition, the figures for the CC50 in data set [3] (setting [14]), in data set [3] (stationary cells) and in [4] (rapidly dividing cells) were above 10 µg/mL, above 100 µg/mL and 0.65 µg/mL (≈ 2.71 µM), respectively. The antiherpetic activity result in the data set with herpes viruses is recorded as “did not exhibit antiherpetic activity”.
For the compound `Nc1nc2c(ncn2[C@H]2C[C@H](O)[C@]3(CO)C[C@H]23)c(=O)[nH]1` [Compound 24], the “SI (CC50/EC50)” value in [1] is above 25; in data set [2], above 10.1; in [6], below 3.2. For the same compound, the values for the EC50 in [1] (setting [15]), in data set [2] (setting [16]) and in data set [6] (setting [17]) were 4 µg/mL (≈ 14.4 µM), 9.9 µg/mL (≈ 35.7 µM) and above 20 µg/mL, respectively. In addition, the “activity against HSV-1” value in data set [1] is “active against HSV-1 and HSV-2”. In data set [2], the “activity against HSV-2” value is “active against HSV-1 and HSV-2”. Also, the “activity against HCMV” value in data set [6] (in words) is listed as “little activity against HCMV”. For the same compound, the 50% cytotoxic concentration (CC50) was above 100 µg/mL in data set [3] (Table 5, host cell not given) and 64.3 µg/mL (≈ 232 µM) in data set [7] (listed as (N)-DMC-G).
Regarding `O=c1ccn([C@@]23C[C@H](O)[C@@H](CO)[C@@H]2C3)c(=O)[nH]1` [(S)-DMC-U, reference compound], the “SI (CC50/EC50)” value in data set [1] is below 3.0; in data set [2], below 3.0; in [6], 1. For the same compound, the EC50 in data set [1] (setting [15]) is above 20 µg/mL; in [2] (setting [16]), above 20 µg/mL; in data set [6] (setting [17]), above 100 µg/mL. The CC50 was 59.1 µg/mL (≈ 248 µM) in data set [3] (Table 5, host cell not given) and above 100 µg/mL in data set [7].
With `Nc1nc(O)c2ncn(COC(CO)CO)c2n1` [GCV, gancyclovir], the EC50 in data set [6] (Human betaherpesvirus 5, Table 3, HCMV, HFF, positive control, read-out: Positive Control EC50) stood at 0.3 µg/mL (≈ 1.18 µM); in [8] (control, read-out: Control EC50), 0.2 µg/mL (≈ 0.784 µM). Moreover, the CC50 in data set [4] (rapidly dividing cells) turned out to be 40 µg/mL (≈ 157 µM). In addition, in the data set with Growing HFF, the “cytotoxicity to rapidly dividing cells” value is “increased cytotoxicity towards rapidly dividing cells”.
With `Nc1ncnc2c1ncn2[C@H]1C[C@H](O)[C@]2(CO)C[C@H]12` [Compound 4, (1 R,2S,4S,5S)-1-Hydroxymethyl-2-hydroxM-4-(6-amino-9-purinyl)bicyclo[3.1.0]hexane], the “SI (CC50/EC50)” value is reported as above 1.4 in data set [1]; above 7.2 in data set [2]; above 32.2 in data set [6]; above 66.7 in the data set on EBV (Epstein-Barr virus); above 17.9 in data set [8] (human foreskin fibroblasts). Besides, the EC50 was found to be 72 µg/mL (≈ 276 µM) in [1] (Human alphaherpesvirus 1, Table 3, HFF); 72 µg/mL (≈ 276 µM) in [1] (setting [15]); 13.9 µg/mL (≈ 53.2 µM) in data set [2] (Human alphaherpesvirus 2, Table 3, HFF); 13.9 µg/mL (≈ 53.2 µM) in data set [2] (setting [16]); 3.1 µg/mL (≈ 11.9 µM) in data set [6] (Human betaherpesvirus 5, Table 3, HCMV, HFF, read-out: EC50); 3.1 µg/mL (≈ 11.9 µM) in data set [6] (setting [17]). Also, the EC50 in data set [6] (Human betaherpesvirus 5, text, HCMV, read-out: EC50) came to 3.1 µg/mL (≈ 11.9 µM); in the data set on EBV (Epstein-Barr virus), 1.5 µg/mL (≈ 5.74 µM); in the data set with EBV (Epstein-Barr virus) (Table 3, Daudi, viral capsid antigen), 1.5 µg/mL (≈ 5.74 µM); in [8] (read-out: EC50) it was 5.6 µg/mL (≈ 21.4 µM). The “activity against HSV-1” value in data set [1] is listed as “weak level of activity”. Further, the “activity against HSV-2” value in data set [2] (listed as (N)-methanocarba-A) is “exhibited antiviral effects against Human CMV, EBV and HSV-2”. The “potency against HCMV relative to gancyclovir” value in data set [6] (HCMV) is reported as “only ten fold less potent than gancyclovir”. In addition, in data set [6] (HCMV, compared with gancyclovir, in words), the antiviral selectivity result was “superibor to that of gancyclovir”. In addition, in [6] (in words, listed as (N)-methanocarba-A), the “activity against HCMV” value was “exhibited antiviral effects against Human CMV, EBV and HSV-2”. Moreover, in the data set with EBV (Epstein-Barr virus), the “anti-EBV activity relative to acyclovir” value is “only fifteen fold weaker than acyclovir”. Besides, the “activity against EBV” value in the data set on EBV (Epstein-Barr virus) (listed as (N)-methanocarba-A) was “exhibited antiviral effects against Human CMV, EBV and HSV-2”. Further, the CC50 is above 100 µg/mL in data set [3] (Table 3, HFF); above 100 µg/mL in data set [3] (Table 5, host cell not given); above 100 µg/mL in data set [4] (Table 3, Growing HFF); above 100 µg/mL in [5] (Table 3, Daudi). Besides, the “cytotoxicity to rapidly dividing cells” value in the data set on Growing HFF is “equally non-toxic to rapidly proliferating cells and stationary cells”. In addition, the half-life at 50 µM in data set [9] was 3.2 min. In data set [10] (50 μM compound, 1.0 unit ADA, 37° C., pH 7.1), the “time to complete deamination” value was 30 min. Further, in data set [10] (in words), the “deamination by ADA” value is on record as “complete deamination”. Further, the inhibition in data set [11] (at 100 μM) and in data set [11] (at 100 FM concentration (so in the source)) was 20% each time. The “activity against AdoHcy-ase” value in data set [11] (in words) was “very low”.

These data come from patent US5840728A, “Conformationally locked nucleoside analogs as antiherpetic agents” (priority 1997, dated 1998).
